Laboratory results taken from US12186307B2, “Methods of treating epilepsy” (YALE UNIVERSITY, priority 2019, dated 2025).
Values joined by “and” are separate entries in the source; they are usually repeats but may differ in a detail not shown here. Identical values can stand only once. “Also recorded” adds a separate entry of the source.

Tests used:
[1] = tested on: Rheb^CA-expressing neurons; experiment: Cell placement, soma size and dendrite (Sholl) analysis in Rheb^CA mouse model of FCM; assay type: in vivo, CD-1 mice
Procedure: (§1) All experiments were performed on CD-1 mice (Charles River) of either sex.
(§2) Each DNA plasmid was diluted in sterile PBS (pH 7.4). Timed pregnant mice (embryonic day, E15) were anesthetized with isoflurane. After exposing the uterine horns, ˜1.5 μl of DNA solution, containing 0.1% fast green added as an injection tracer, was injected into the lateral ventricle via a pulled glass capillary. PBS-soaked tweezer-type electrodes (model 520, BTX) were then positioned on the head of the fetuses across the uterine wall and 6 square-pulses at […] and 50 ms duration every 950 ms were applied using a pulse generator (ECM830, BTX). At birth, mice were prescreened for successful electroporation by detecting the expression of fluorescent protein markers on a fluorescence-enabled stereo microscope (SZX16, Olympus). Morphology and seizure data in different conditions (Flna vs Luciferase shRNA or vehicle vs PTI-125 treatment) were compared between littermate mice. For most experiments, mice received unilateral electroporation, except for experiments in FIG. 4F (P8-P65 PTI-125 treatment on seizures) for which mice received bilateral electroporation.
(§3) Mice: Mice were transcardially perfused with PBS followed by 4% paraformaldehyde. Brains were then dissected and post-fixed in 4% paraformaldehyde for 24 hours before being transferred to a solution of 3% agarose solution in PBS. These were then sectioned coronally on a vibratome at a thickness of 50 μm. For immunofluorescence, free-floating sections were incubated for 1 hour in a blocking solution (2% bovine serum albumin and 0.1% Triton-X in PBS) at room temperature and then incubated with primary antibodies (Table 5) overnight at 4° C. Sections were washed with PBS+0.05% Tween 20 and then placed in blocking solution containing secondary antibodies for 1 hour at room temperature. All images were taken using an FV1000 confocal microscope (Olympus).
(§4) Quantification of the number of layer 2/3 neurons in the anterior cingulate cortex, the boundary between layer 2/3 and layer 5 was determined using ER81 staining, which labels layer 5 (FIGS. 14A-14B)Soma size was quantified by outlining the soma of GFP+ cells and measuring the area using ImageJ. Intensity of phospho-S6 and FLNA in sections was quantified by outlining somas of cells and measuring the mean gray value. Then, the values in electroporated cells (in mice) or SMI-311-positive cells (in humans) were normalized to those in non-electroporated cells or unstained cells surrounding electroporated cells to control for variability of staining between sections.
To analyze neuronal morphology and, in particular dendritic trees, only a few neurons per section were labeled using a Cre-based strategy as previously reported. More specifically, an inducible DsRed2 vector (pCAG-LoxP-stop-LoxP-DsRed2, pCALNL-DsRed2) combined with a Cre vector (pCAG-Cre) was used at very low concentration (1 ng/μl). The Cre plasmid led to DsRed expression in only 3-5 neurons per slice allowing to cleanly analyze the dendritic morphology of individual neurons (FIGS. 15A-15C)Images of DsRed-expressing basal dendrites were acquired in coronal sections using a Fluoview 1000 confocal microscope with a 20× objective. Basal dendrites were traced with simple neurite tracer software (FIJI and Neuronstudio). Sholl analyses were carried out using the number of intersections in 10-μm-increment concentric circles as a measure of morphological complexity. Z stacks from three different square fields of view were taken from three different sections. Analysis was performed blindly with more than four animals and more than 20 cells per condition (see Table 3 for actual n number).
(§5) PTI-125 was dissolved in saline at a concentration of 2.4 mg/ml. Mice received two intraperitoneal injections of 6 or 12 mg/kg PTI-125 every day. Saline was used as vehicle treatment.

[2] = Body weight during treatment of Rheb^CA mice; assay type: in vivo, CD-1 mice; conditions: 12 mg/kg i.p. twice daily, P8-P60
Procedure: as §1, §5

phospho-S6 = experiment: Phospho-S6 (read-out of mTORC1 activity) immunostaining / immunoblot in mouse cortex; assay type: in vivo, CD-1 mice
Procedure: as §3, §4
Human and mouse samples were lysed in RIPA buffer (Thermo fisher, #89900) with protease/phosphatase inhibitor cocktail (Cell Signaling Technology, #5872), 5 mM EDTA, and 20 units/ml DNase I (Roche). All lysates were run on Tris-glycine gels (Bio-Rad, #456-1086 for mouse samples and #456-1046 for human samples). Proteins were transferred to PVDF and blocked in 5% milk and incubated with primary antibodies (concentrations of primary antibody are listed in Table 5). HRP-conjugated anti-rabbit or anti-mouse were used as secondary antibodies. Phosphorylated and total proteins were blotted on the same membrane after stripping (Thermo fisher, #21059). […]

native FLNA = native FLNA (Homo sapiens, UniProt P21333); conditions: reported; cited from earlier work
Sequence of native FLNA (P21333 whole entry, species assumed): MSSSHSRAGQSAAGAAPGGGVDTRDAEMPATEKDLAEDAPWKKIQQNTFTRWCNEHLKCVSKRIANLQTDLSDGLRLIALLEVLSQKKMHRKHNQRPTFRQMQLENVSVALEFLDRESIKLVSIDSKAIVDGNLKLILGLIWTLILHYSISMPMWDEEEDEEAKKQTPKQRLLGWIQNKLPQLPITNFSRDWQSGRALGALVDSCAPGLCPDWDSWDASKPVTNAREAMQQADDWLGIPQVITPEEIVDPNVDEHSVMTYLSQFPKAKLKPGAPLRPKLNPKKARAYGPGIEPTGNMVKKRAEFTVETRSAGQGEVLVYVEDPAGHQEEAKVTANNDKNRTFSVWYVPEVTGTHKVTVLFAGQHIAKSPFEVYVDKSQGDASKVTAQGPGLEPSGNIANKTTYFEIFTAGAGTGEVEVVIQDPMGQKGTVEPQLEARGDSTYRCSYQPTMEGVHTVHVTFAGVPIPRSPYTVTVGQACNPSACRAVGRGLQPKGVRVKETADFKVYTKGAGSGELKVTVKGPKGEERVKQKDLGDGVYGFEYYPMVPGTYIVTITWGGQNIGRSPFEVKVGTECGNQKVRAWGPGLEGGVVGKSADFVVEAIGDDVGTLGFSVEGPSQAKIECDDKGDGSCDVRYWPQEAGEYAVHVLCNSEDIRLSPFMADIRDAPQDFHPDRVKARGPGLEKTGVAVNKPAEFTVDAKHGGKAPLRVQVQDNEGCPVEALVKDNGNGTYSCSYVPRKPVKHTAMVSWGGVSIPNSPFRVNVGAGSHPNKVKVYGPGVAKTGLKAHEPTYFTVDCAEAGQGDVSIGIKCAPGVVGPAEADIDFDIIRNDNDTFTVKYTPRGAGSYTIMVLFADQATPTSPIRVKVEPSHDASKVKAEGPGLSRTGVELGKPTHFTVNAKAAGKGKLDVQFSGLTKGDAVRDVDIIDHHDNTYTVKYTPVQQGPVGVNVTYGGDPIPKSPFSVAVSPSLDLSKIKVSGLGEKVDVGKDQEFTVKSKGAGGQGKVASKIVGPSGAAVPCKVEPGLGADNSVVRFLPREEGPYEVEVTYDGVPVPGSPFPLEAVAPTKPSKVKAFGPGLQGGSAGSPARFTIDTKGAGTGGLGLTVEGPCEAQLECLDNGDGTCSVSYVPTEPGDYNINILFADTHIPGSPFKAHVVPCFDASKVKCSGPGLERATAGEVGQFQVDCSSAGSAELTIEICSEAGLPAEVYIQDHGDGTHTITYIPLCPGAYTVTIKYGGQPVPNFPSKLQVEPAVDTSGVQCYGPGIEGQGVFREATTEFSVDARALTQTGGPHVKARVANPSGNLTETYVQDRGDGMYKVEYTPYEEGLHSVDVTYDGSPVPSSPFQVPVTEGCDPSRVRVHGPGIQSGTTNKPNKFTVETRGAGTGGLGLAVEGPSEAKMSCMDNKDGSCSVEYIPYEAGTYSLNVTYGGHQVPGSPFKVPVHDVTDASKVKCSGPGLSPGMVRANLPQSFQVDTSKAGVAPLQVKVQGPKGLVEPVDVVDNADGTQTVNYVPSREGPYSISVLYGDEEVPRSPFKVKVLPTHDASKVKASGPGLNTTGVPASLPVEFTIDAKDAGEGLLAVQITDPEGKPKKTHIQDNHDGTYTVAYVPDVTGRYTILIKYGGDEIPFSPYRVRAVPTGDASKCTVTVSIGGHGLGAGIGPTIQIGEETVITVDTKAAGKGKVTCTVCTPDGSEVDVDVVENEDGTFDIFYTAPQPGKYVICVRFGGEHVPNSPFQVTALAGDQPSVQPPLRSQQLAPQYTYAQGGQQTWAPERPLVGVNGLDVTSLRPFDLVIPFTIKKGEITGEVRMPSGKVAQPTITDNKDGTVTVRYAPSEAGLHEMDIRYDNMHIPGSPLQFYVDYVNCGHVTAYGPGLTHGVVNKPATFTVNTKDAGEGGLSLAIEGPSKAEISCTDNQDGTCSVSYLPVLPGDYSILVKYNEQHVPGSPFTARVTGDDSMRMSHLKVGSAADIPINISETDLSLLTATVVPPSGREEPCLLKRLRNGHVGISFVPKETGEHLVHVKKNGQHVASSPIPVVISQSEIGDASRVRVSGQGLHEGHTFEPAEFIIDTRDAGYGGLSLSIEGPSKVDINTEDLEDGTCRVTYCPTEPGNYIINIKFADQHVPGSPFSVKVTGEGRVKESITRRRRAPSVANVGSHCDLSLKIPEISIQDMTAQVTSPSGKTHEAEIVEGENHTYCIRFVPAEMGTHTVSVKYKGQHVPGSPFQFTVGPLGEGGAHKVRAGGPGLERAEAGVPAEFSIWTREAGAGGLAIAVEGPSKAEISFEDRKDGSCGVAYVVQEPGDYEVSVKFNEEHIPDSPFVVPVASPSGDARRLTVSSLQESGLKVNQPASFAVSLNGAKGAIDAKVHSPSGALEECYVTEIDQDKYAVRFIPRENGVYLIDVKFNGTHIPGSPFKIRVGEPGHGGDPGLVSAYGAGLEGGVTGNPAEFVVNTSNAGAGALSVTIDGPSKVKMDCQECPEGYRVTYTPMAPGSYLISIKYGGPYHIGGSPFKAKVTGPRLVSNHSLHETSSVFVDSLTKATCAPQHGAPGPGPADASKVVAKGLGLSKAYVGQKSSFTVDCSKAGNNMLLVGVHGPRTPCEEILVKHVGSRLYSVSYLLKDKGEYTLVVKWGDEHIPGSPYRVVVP

[3] = target: aberrant FLNA in Alzheimer's disease (Homo sapiens, UniProt P21333); conditions: reported; cited from earlier work
Sequence of aberrant FLNA in Alzheimer's disease (P21333 whole entry): as the sequence (P21333 whole entry, species assumed) above

Rheb^CA-expressing mice = experiment: Video-EEG recording of seizures in Rheb^CA-expressing mice; assay type: in vivo, CD-1 mice
Procedure: as §1
as §2, with “Olympus).” for “Olympus). Morphology and seizure data in different conditions (Flna vs Luciferase shRNA or vehicle vs PTI-125 treatment) were compared between littermate mice. For most experiments, mice received unilateral electroporation, except for experiments in FIG. 4F (P8-P65 PTI-125 treatment on seizures) for which mice received bilateral electroporation.”
Mice were anesthetized with isoflurane and positioned on a stereotaxic frame using ear bars. A rostro-caudal midline incision was made in the skin to expose the skull surface. Four pilot holes (two bilateral holes 1 mm anterior to bregma and two bilateral holes 5 mm posterior to bregma, each 1.5 mm lateral to sagittal suture), was tapped through the skull to dura using a microdrill (Roboz Surgical Instrument, #RS6300). […] Silver conductive paint (Electron Microscopy Science) was applied around the screw threads to ensure a solid connection with the headmount. The entire implant was insulated using dental acrylic. Mice were allowed to recover in their home cage for seven days before video-EEG monitoring.
Mice were housed in individual recording chambers in a light-, temperature- and humidity-controlled room during video-EEG monitoring. Mice were freely moving inside the chambers and had ad libitum access to food and water. Synchronous video-EEG recording was acquired using a three-channel EEG tethered system (Pinnacle Technology, cat. no. 8200-K1-iSE3) and Sirenia Acquisition software (Pinnacle Technology). Mice were continuously recorded 24 hours/day for 5-6 consecutive days or 31-45 days.
Seizure frequency and duration were analyzed using Sirenia Seizure Basic software (Pinnacle Technology). All analyses were performed blinded to experimental groups by at least two investigators. The entire EEG traces were manually reviewed for the occurrence of seizures, defined as a sudden onset of high amplitude activity with a characteristic pattern of progressive frequency and amplitude changes over the course of the event lasting≥10 sec. Seizure onset was defined by high amplitude firing>2× baseline and seizure termination was defined by a return to baseline activity. Video data were inspected for behavioral correlates including myoclonic jerks, tonic-clonic activities, convulsions, and loss of postural control (rearing and falling) and were used as secondary verification of seizures. For each individual animal, mean number of seizures per day was obtained by dividing the total number of seizures by the total number of recording hours and multiplied by 24.
Saline was used as vehicle treatment.

[4] = tested on: seizures in individuals with TSC or FCDII; conditions: clinical trial, cited from earlier work
Neuro2a cells = experiment: S6 phosphorylation immunoblot in transfected Neuro2a cells; assay type: cell-based; conditions: in vitro, Neuro2a cells transfected with shRNA
Procedure: Neuro2a cells were grown at 37° C. with 5% CO2 in a complete media consisting of high glucose DMEM (Gibco, #11965-092), 5% heat-inactivated fetal bovine serum (Gibco, #16140071), and 1% penicillin-streptomycin. Cells were plated in 12 well culture plates (Corning, #0720082) and transfected when they reached ˜70% confluence. Transfection was done using PolyJet transfection reagent (Signagen, SL100688) according to the manufacturer's instructions. Cells were lysed 72 hours after transfection for all experiments.
Human and mouse samples were lysed in RIPA buffer (Thermo fisher, #89900) with protease/phosphatase inhibitor cocktail (Cell Signaling Technology, #5872), 5 mM EDTA, and 20 units/ml DNase I (Roche). All lysates were run on Tris-glycine gels (Bio-Rad, #456-1086 for mouse samples and #456-1046 for human samples). Proteins were transferred to PVDF and blocked in 5% milk and incubated with primary antibodies (concentrations of primary antibody are listed in Table 5). HRP-conjugated anti-rabbit or anti-mouse were used as secondary antibodies. Phosphorylated and total proteins were blotted on the same membrane after stripping (Thermo fisher, #21059). All density measurements were performed using NIH Image J software. In the case where cross-blot normalization was required a reference sample was loaded on each gel to account for inter-gel variability (FIGS. 11A-11B).

[5] = 6 mg/kg i.p. twice daily, P8 to P28
[6] = 12 mg/kg i.p. twice daily, P8 to P28
[7] = treatment after seizure onset, P29 to P54

Compound: CN1CCC2(CC1)NCC(=O)N2Cc1ccccc1 [PTI-125]
- dendritic dysmorphogenesis [1, 5]: partially rescued
- neuronal soma size [1, 5]: partially rescued
- dendritic dysmorphogenesis [1, 6]: partially rescued
- neuronal soma size [1, 6]: partially rescued
- dendritic dysmorphogenesis [1, 7]: partially, but significantly, rescued
- increased soma size [1, 7]: partially, but significantly, rescued
- cell misplacement (neuronal placement) ([1]; treatment starting at P8, 12 mg/kg, brain sections from recorded mice): not affected; also recorded: did not rescue
- body weight [2]: did not affect
- phospho-S6 expression in the cortex (phospho-S6; nonelectroporated mice, 12 mg/kg): not affected
- phospho-S6 intensity in brain sections (phospho-S6; recorded Rheb^CA mice, 12 mg/kg P8-P65): not affected
- affinity for native FLNA (native FLNA): picomolar
- affinity for aberrant FLNA in Alzheimer's disease [3]: femtomolar
- seizure frequency (Rheb^CA-expressing mice; 12 mg/kg i.p. twice daily P8-P65, recorded P61 to P66, vehicle 5.1): 1.4 seizures/day
- Number of mice without/with seizures per condition (Rheb^CA-expressing mice; FIG. 6A, all treatments combined, vehicle 3/29): 11/32
- overall reduction in seizure frequency compared to vehicle-treated littermates (Rheb^CA-expressing mice; all PTI-125 treatments combined (n=32 vs n=27)): 66%
- seizure-free mice (Rheb^CA-expressing mice; all PTI-125 treatments combined, vehicle 11%): 35%
- lowering of seizure frequency compared to vehicle-treated mice (Rheb^CA-expressing mice; treatment P29 to P54, recorded P50-P54): 69% and 67%
- seizure frequency (Rheb^CA-expressing mice; treatment P29 to P54, recorded P50-P54, vehicle 2.7): 0.84 seizures/day
- reduction of seizure frequency (Rheb^CA-expressing mice; treatment prior to seizure onset, 12 mg/kg P8-P65, vs vehicle): 73%
- reduction in seizure frequency prior to vs after treatment in the same mice (Rheb^CA-expressing mice; young adult mice (P61-P106), 33-day treatment): 60%
- change of seizure frequency over time (Rheb^CA-expressing mice; young adult mice switched from vehicle to PTI-125 after 12 days of recordings, 20-day treatment): did not have the increase in seizure frequency observed in the vehicle group
- mean seizure frequency (Rheb^CA-expressing mice; young adult mice, after 33-day treatment, 3.9 prior to treatment): 1.6 seizures/day

Compound: CO[C@H]1C[C@@H]2CC[C@@H](C)[C@@](O)(O2)C(=O)C(=O)N2CCCC[C@H]2C(=O)O[C@H]([C@H](C)C[C@@H]2CC[C@@H](OCCO)[C@H](OC)C2)CC(=O)[C@H](C)/C=C(\C)[C@@H](O)[C@@H](OC)C(=O)[C@H](C)C[C@H](C)/C=C/C=C/C=C/1C [everolimus]
- patients with reduced seizure frequency ([4]; highest dose): 40%
- patients who saw no improvements [4]: 60%
- side-effects [4]: had side-effects

Compound: Flna shRNA: short hairpin RNA against Flna, expressed from plasmid; sequence 5′ CCTATGAAGCTGGAACCTATA 3′ (expressed from plasmid pCGLH)
- total dendritic length ([1]; Rheb^CA neurons co-expressing shRNA by E15 IUE, P28, 194% with control shRNA): 130 % of control
- soma size ([1]; Rheb^CA neurons co-expressing shRNA by E15 IUE, P28, 372% with control shRNA): 250 % of control
- misplaced cells (neuronal misplacement) ([1]; Rheb^CA neurons co-expressing shRNA by E15 IUE, analysed at P28, 50% with control shRNA, 2% in control): 23%
- increased phospho-S6 intensity in vivo (phospho-S6; GFP+ Rheb^CA-expressing neurons in EEG-recorded mice): did not prevent
- Rheb^CA-induced increased S6 phosphorylation (Neuro2a cells): did not reduce
- death of mice (Rheb^CA-expressing mice; out of 10 mice, 4 out of 16 died in the control group): no mice died
- lowering of seizure frequency compared to luciferase shRNA (Rheb^CA-expressing mice; video-EEG for 5 days starting at P61): 83%
- mean seizure frequency (Rheb^CA-expressing mice; video-EEG for 5 days starting at P61, 12.6 with luciferase shRNA): 2.2 seizures/day
